Assay results: patent US12365709B2, “Immunomodulatory peptide” (INSTITUT NATIONAL UNI[…]-FRANCOIS CHAMPOLLION, priority 2017, dated 2025)
No end group written: not given here.

Assays:
[1] = system: macrophages derived from human monocytes; assay: Production of ROS by macrophages derived from human monocytes in response to C. albicans (luminol chemiluminescence); assay type: cell-based; settings: macrophages treated 24 hours; yeast ratio per macrophage 3:1; vs untreated
From the text: To analyse the production of ROS, the macrophages derived from human monocytes have been treated, or not, with the peptide P17, P17, non-amidated, or with the following P17 fragments, P17(1-5), P17(1-7), P17(1-9), P17(1-11), P17(3-13), P17(5-13), P17(7-13) and P17(9-13); the fragments P17(1-5), P17(1-7), P17(1-9), P17(1-11) not being amidated at the C-terminal […] and the fragments P17(3-13), P17(5-13), P17(7-13) and P17(9-13) being amidated at the C-terminal. Then, the macrophages derived from human monocytes thus treated have been incubated at 37° C. for 24 hours. The production of reactive derivatives of oxygen (ROS) has been measured by chemiluminescence in the presence of 5-amino-2,3-dihydro-1,4-phthalazinedione (luminol) (EnVision; PerkinElmer). The chemiluminescence generation has been continually measured for 1 hour 30 minutes after incubation of cells with luminol (66 μM) in the presence, or not, of C. albicans (yeast ratio per macrophage: 3:1).

[2] = system: macrophages derived from human monocytes; assay: Removal of C. albicans by macrophages derived from human monocytes (CFU); assay type: cell-based; settings: macrophages treated with peptide 24 hours, then C. albicans 0.3 yeasts per macrophage, 4 hours; vs untreated
Procedure: The macrophages derived from human monocytes have been treated, or not, with the peptide P17 or fragments of it then incubated at 37° C. for 24 hours. These cells have been incubated for 40 minutes at 37° C. with C. albicans (at a ratio of 0.3 yeasts per macrophage) and the non-bound yeasts are removed by washing. These macrophages are thus incubated at 37° C. for 4 hours. After incubation, the environment has been removed and the cells have been lysed. The units forming colonies (CFU) of C. albicans have been determined on Sabouraud boxes after spreading and culturing for 48 hours at 37° C.

[3] = system: C-type lectin receptors; assay: Protein expression of C-type lectin receptors (flow cytometry); assay type: cell-based, human; settings: P17 200 μg/ml, 24 hours
Procedure: To analyse the protein level of C-type lectin receptors, the macrophages derived from human monocytes have been treated, or not, with the peptide P17 (200 μg/ml) then incubated at 37° C. for 24 hours. The cells collected have been centrifugated at 1500 rpm for 10 minutes and […] have been suspended in the PBS supplemented with 1% foetal calf serum (FCS). The cells have been marked with antibodies coupled with different fluorochromes directed against the Dectin-1 receptor (mAb; R&D FAB1859C-100, 1/40), DC-SIGN (mAb; BD Biosciences 551 265, 1/20) CD16 (mAb; PNIM 0814, 1/20), CD36 (mAb; BD Biosciences 550 956, 1/40) and the mannose receptor (specific MR (mannose receptor) ligand) conjugated FITC (Sigma A7790, 1 mg/ml 1/100)). The analysis has been carried out by flow cytometry (Becton Dickinson FACScalibur) over a population of 10000 cells.

[4] = system: peritoneal murine macrophages; assay: Production of ROS by murine macrophages in response to murine lymphoma T tumour cells (EL4); assay type: cell-based; settings: murine macrophages treated with P17 24 hours
Procedure: To analyse the production of ROS, peritoneal murine macrophages have been treated, or not, with the peptide P17 then incubated at 37° C. for 24 hours. The production of reactive derivatives of oxygen (ROS) has been measured by chemiluminescence in the presence of 5-amino-2,3-dihydro-1,4-phthalazinedione (luminol) (EnVision; PerkinElmer). The chemiluminescence generation has been continually measured for 1 hour 30 minutes after incubation of cells with luminol […] in the presence, or not, of EL4 lymphoma T tumour cells.

[5] = system: EL4 tumour cells; assay: Number of lymphoma T tumour cells (EL4) in the presence of murine macrophages; assay type: cell-based; settings: co-culture with macrophages polarised by P17; vs untreated macrophages
Procedure: Peritoneal murine macrophages have been treated, or not, with the peptide P17 then incubated at 37° C. for 24 hours. These macrophages have been incubated for 40 minutes at 37° C. with luminescent lymphoma T cells (EL4-luc) and unbound cells are removed by washing. These macrophages are thus incubated at 37° C. for 4 hours. After incubation, the number of lymphoma T cells (EL4-luc) is evaluated by chemiluminescence.

[6] = system: macrophages derived from human monocytes; assay: Production of IL-1β, TNFα, IL-10 and IL-12 by macrophages derived from human monocytes in response to C. albicans (ELISA); assay type: cell-based; settings: P17 24 hours then C. albicans 3:1 for 8 hours
Procedure: Macrophages derived from human […] have been stimulated with the peptide P17 for 24 hours, then these macrophages activated by the peptide P17 have been stimulated with C. albicans at a yeast per macrophage ratio of 3:1 for 8 hours. The production of IL-1β, TNFα, IL-10 and IL-12 in cell supernatants has been determined by ELISA (OptiElA BD Biosciences).

[7] = system: macrophages derived from human monocytes; assay: Binding and phagocytosis of C. albicans by macrophages derived from human monocytes; assay type: cell-based; settings: macrophages treated 24 hours, GFP yeasts, vs untreated
Procedure: To analyse the binding and the phagocytosis of C. albicans, macrophages derived from human monocytes have been treated, or not, with the peptide P17, then incubated at 37° C. for 24 hours. The macrophages derived from human monocytes have been brought together with the yeasts marked GFP (ratio 1/6) then incubated at 4° C. for 20 minutes, in order to evaluate the binding. The phagocytosis has been evaluated after 1 hour of incubation at 37° C. The quantity of C. albicans bound or ingested by macrophages derived from human monocytes has been determined by measuring the fluorescence by using a fluorimeter (PerkinElmer EnVision).

[8] = system: C. albicans; assay: Experimental gastrointestinal Candida murine model; assay type: in vivo; settings: P17 10 μg per mouse i.p., vs untreated mice
Procedure: For in vivo experiments, a gastrointestinal infection with the C. albicans strain 98/26135 has been established by feeding with 50×10^6 of C. albicans per mouse (n=8 per group). No antibiotic or immunosuppressant treatment has been used to facilitate the infection of mucous membranes of the oral cavity and of the gastrointestinal tract. The mice have been treated intraperitoneally (i.p.) with the peptide P17 (10 μg per mouse) or with a saline solution for control groups, 1 day before the injection with C. albicans, 1 day after infection and then every 2 days (5 injections). The body weight of each mouse has been recorded daily. On the 8th day after treatment (7 days after infection), all mice have been euthanised by asphyxiation with CO2.
The oesophagus, the stomach, the caecum and the liver have been removed aseptically to evaluate the colonisation by C. albicans. The peritoneal macrophages of the mice have been sampled and the ex vivo capacities thereof to remove and to phagocytose Candida albicans have been determined. The production of ROS, IL-(3 and IL-12 by these macrophages in response to Candida albicans have also been evaluated.

Substance	production of ROS in response to C. albicans [1]	removal of C. albicans by macrophages [2]	other results
EKIKAKL [P17(7-13)]	Only the fragments P17(3-13) and P17(5-13) conserve the activity		
IKAKL [P17(9-13)]	Only the fragments P17(3-13) and P17(5-13) conserve the activity		
ILEKIKAKL [P17(5-13)]	conserve the activity	activity close to that of P17	
KEILEKIKAKL [P17(3-13)]	conserve the activity	activity close to that of P17	
LFKEI (LFKEI-OH) [P17(1-5)]	does not induce the production of ROS	does not induce the production of ROS, nor the removal of Candida albicans	
LFKEILE (LFKEILE-OH) [P17(1-7)]	does not induce the production of ROS	does not induce the production of ROS, nor the removal of Candida albicans	
LFKEILEKI (LFKEILEKI-OH) [P17(1-9)]	does not induce the production of ROS	does not induce the production of ROS, nor the removal of Candida albicans	
LFKEILEKIKA (LFKEILEKIKA-OH) [P17(1-11)]	does not induce the production of ROS	does not induce the production of ROS, nor the removal of Candida albicans	
LFKEILEKIKAKL [P17] (LFKEILEKIKAKL-NH2)	higher production of ROS	considerably increases the capacity of human macrophages to remove in vitro C. albicans	expression of C-type lectin receptors on the surface of macrophages [3]: overexpression of C-type lectin receptors; production of ROS in response to EL4 tumour cells [4]: increased production of ROS; number of EL4 tumour cells [5]: decreases significantly; production of IL-1β [6]: higher production; production of TNFα [6]: higher production; capacity to recognise (binding) C. albicans ([7]; 4° C. for 20 minutes): greater capacity to recognise; capacity to phagocytose C. albicans ([7]; 1 hour at 37° C.): greater capacity to recognise and to phagocytose C. albicans; loss of body weight ([8]; mice with gastrointestinal candidiasis): lesser loss of weight; gastrointestinal colonisation by Candida albicans ([8]; mice): significantly lower
LFKEILEKIKAKL [non-amidated P17] (LFKEILEKIKAKL-OH; listed as Tetramorium bicarinatum)	C-terminal amidation of P17 is essential to the pro-inflammatory activity		
